Measurements reported in patent publication US12599136B2, “Substituted isophthalic acid diamides and their use as herbicides” (Bayer Aktiengesellschaft, priority 2020, dated 2026).

How the values were obtained:
Format in all cases: in vivo
[1] = test system: Abutilon theophrasti; assay: Pre-emergence herbicidal action against ABUTH; settings: visual score after 3 weeks vs untreated controls
From the text: (§1) Seeds of monocotyledonous and dicotyledonous weed plants and crop plants are laid out in sandy loam soil in wood-fiber pots and covered with soil. The compounds of the invention, formulated in the form of wettable powders (WP) or as emulsion concentrates (EC), are then applied to the surface of the covering soil in the form of an aqueous suspension or emulsion at a water application rate equivalent to 600 to 800 l/ha, with addition of 0.2% wetting agent. After the treatment, the pots are placed in a greenhouse and kept under good growth conditions for the trial plants. The damage to the test plants is scored visually after a test period of 3 weeks by comparison with untreated controls (herbicidal activity in percent (%): 100% activity=the plants have died, 0% activity=like control plants). […] The tables below illustrate, in an illustrative manner, the post-emergence herbicidal action of the compounds of the invention, the herbicidal activity being stated in percent.

[2] = test system: Alopecurus myosuroides; assay: Pre-emergence herbicidal action against ALOMY; settings: visual score after 3 weeks vs untreated controls
From the text: as §1

[3] = test system: Amaranthus retroflexus; assay: Pre-emergence herbicidal action against AMARE; settings: visual score after 3 weeks vs untreated controls
From the text: as §1

[4] = test system: Echinochloa crus-galli; assay: Pre-emergence herbicidal action against ECHCG; settings: 80 g/ha; visual score after 3 weeks vs untreated controls
From the text: as §1

[5] = test system: Matricaria inodora; assay: Pre-emergence herbicidal action against MATIN; settings: visual score after 3 weeks vs untreated controls
From the text: as §1

[6] = test system: Setaria viridis; assay: Pre-emergence herbicidal action against SETVI
From the text: as §1

[7] = test system: Abutilon theophrasti; assay: Post-emergence herbicidal action against ABUTH
Method: (§2) Seeds of monocotyledonous and dicotyledonous weed and crop plants are laid out in sandy loam soil in wood-fiber pots, covered with soil and cultivated in a greenhouse under good growth conditions. 2 to 3 weeks after sowing, the test plants are treated at the one-leaf stage. The compounds of the invention, formulated in the form of wettable powders (WP) or as emulsion concentrates (EC), are then sprayed onto the green parts of the plants in the form of an aqueous suspension or emulsion at a water application rate equivalent to 600 to 800 l/ha, with addition of 0.2% wetting agent. After the test plants have been left to stand in the greenhouse under optimal growth conditions for about 3 weeks, the action of the preparations is assessed visually in comparison to untreated controls (herbicidal action in percent (%): 100% activity=the plants have died, 0% activity=like control plants). […] The tables below illustrate, in an illustrative manner, the post-emergence herbicidal action of the compounds of the invention, the herbicidal activity being stated in percent.

[8] = test system: Amaranthus retroflexus; assay: Post-emergence herbicidal action against AMARE; settings: visual assessment about 3 weeks after treatment
Method: as §2

[9] = test system: Echinochloa crus-galli; assay: Post-emergence herbicidal action against ECHCG; settings: 20 g/ha, visual assessment about 3 weeks after treatment
Method: as §2

[10] = test system: Pharbitis purpurea; assay: Post-emergence herbicidal action against PHBPU; settings: 20 g/ha, visual assessment about 3 weeks after treatment
Method: as §2

[11] = test system: Setaria viridis; assay: Post-emergence herbicidal action against SETVI; settings: visual assessment about 3 weeks after treatment
Method: as §2

[12] = test system: Veronica persica; assay: Post-emergence herbicidal action against VERPE; settings: 20 g/ha, visual assessment about 3 weeks after treatment
Method: as §2

[13] = test system: Viola tricolor; assay: Post-emergence herbicidal action against VIOTR
Method: as §2

[14] = test system: Veronica persica; assay: Pre-emergence herbicidal action against VERPE; settings: 80 g/ha
From the text: as §1

[15] = test system: Viola tricolor; assay: Pre-emergence herbicidal action against VIOTR
From the text: as §1

[16] = test system: Alopecurus myosuroides; assay: Post-emergence herbicidal action against ALOMY
Method: as §2

[17] = test system: Matricaria inodora; assay: Post-emergence herbicidal action against MATIN; settings: visual assessment about 3 weeks after treatment
Method: as §2

[18] = test system: Avena fatua; assay: Post-emergence herbicidal action against AVEFA; settings: 20 g/ha, visual assessment about 3 weeks after treatment
Method: as §2

[19] = test system: Digitaria sanguinalis; assay: Pre-emergence herbicidal action against DIGSA
From the text: as §1

[20] = test system: Avena fatua; assay: Pre-emergence herbicidal action against AVEFA; settings: 80 g/ha; visual score after 3 weeks vs untreated controls
From the text: as §1

Row | Compound | Pre-emergence action against ABUTH ([1]; 80 g/ha) [%] | Pre-emergence action against ALOMY ([2]; 80 g/ha) [%] | Pre-emergence action against AMARE ([3]; 20 g/ha) [%] | Pre-emergence action against AMARE ([3]; 80 g/ha) [%] | Pre-emergence action against ECHCG [4] [%] | Pre-emergence action against MATIN ([5]; 20 g/ha) [%] | Pre-emergence action against MATIN ([5]; 80 g/ha) [%] | Pre-emergence action against SETVI ([6]; 80 g/ha) [%] | Post-emergence action against ABUTH ([7]; 5 g/ha) [%] | Post-emergence action against ABUTH ([7]; 20 g/ha) [%] | Post-emergence action against AMARE in % ([8]; 5 g/ha) [%] | Post-emergence action against AMARE in % ([8]; 20 g/ha) [%] | Post-emergence action against ECHCG in % [9] [%] | Post-emergence action against SETVI in % ([11]; 20 g/ha) [%] | Post-emergence action against VERPE in % [12] [%] | Post-emergence action against VIOTR in % ([13]; 20 g/ha) [%] | Pre-emergence action against VIOTR ([15]; 80 g/ha) [%] | Post-emergence action against ALOMY ([16]; 20 g/ha) [%] | Post-emergence action against MATIN in % ([17]; 20 g/ha) [%] | Pre-emergence action against ABUTH ([1]; 20 g/ha) [%] | also measured
1 | Cc1c(C(=O)Nc2nnnn2C)ccc(C(F)F)c1C(=O)N(C)C [Example 1-50] | 100 | 80 | 90 | 100 | 80 | 80 | 90 | 80 | 80 | 90 | 90 | 100 | 80 | 80 | 80 | 80 | – | – | – | – | Post-emergence action against PHBPU in % [10]: 80%
2 | CCN(C)C(=O)c1c(C(F)F)ccc(C(=O)Nc2nnnn2C)c1C [Example 1-51] | 100 | 80 | 80 | 100 | 90 | – | 90 | 80 | 80 | 80 | 100 | 100 | 80 | 80 | 80 | 90 | 90 | 80 | 80 | – | Pre-emergence action against VERPE [14]: 80%; Post-emergence action against PHBPU in % [10]: 90%; Post-emergence action against SETVI in % ([11]; 5 g/ha): 80%; Post-emergence action against VIOTR in % ([13]; 5 g/ha): 80%
3 | CCN(CC)C(=O)c1c(C(F)F)ccc(C(=O)Nc2nnnn2C)c1C [Example 1-59] | 100 | 90 | 100 | 100 | – | – | 90 | 100 | 90 | 90 | 100 | 100 | 80 | 90 | 90 | 80 | – | 90 | 90 | – | Pre-emergence action against VERPE [14]: 90%; Post-emergence action against ALOMY ([16]; 5 g/ha): 90%; Post-emergence action against AVEFA in % [18]: 90%; Post-emergence action against SETVI in % ([11]; 5 g/ha): 90%
4 | Cn1nnnc1NC(=O)c1ccc(C(F)(F)F)c(C(=O)N(C2CC2)C2CC2)c1Cl [Example 1-144] | 100 | – | 90 | 100 | – | 90 | 100 | – | – | – | 90 | 90 | – | – | – | – | 100 | – | – | 80 | Pre-emergence action against DIGSA ([19]; 80 g/ha): 100%; Pre-emergence action against VIOTR ([15]; 20 g/ha): 80%
5 | Cn1nnnc1NC(=O)c1ccc(C(F)F)c(C(=O)N(C2CC2)C2CC2)c1Cl [Example 1-175] | 100 | – | 80 | 100 | – | 90 | 90 | – | 80 | 90 | 100 | 100 | – | – | – | – | 90 | – | 90 | 90 | –
6 | CCOC(=O)[C@@H]1CCCN1C(=O)c1c(C(F)(F)F)ccc(C(=O)Nc2nnnn2C)c1Cl [Example 1-400] | 100 | – | 90 | 100 | – | – | 90 | – | – | – | – | – | – | – | – | – | – | – | – | – | Pre-emergence action against DIGSA ([19]; 20 g/ha): 100%; Pre-emergence action against DIGSA ([19]; 80 g/ha): 100%
7 | CCOC(=O)[C@@H]1CCCN1C(=O)c1c(C(F)F)ccc(C(=O)Nc2nnnn2C)c1Cl [Example 1-402] | – | – | – | 100 | – | – | 90 | – | – | – | – | 90 | – | – | – | – | – | – | – | – | –
8 | CCN(CC)C(=O)c1c(C(F)F)ccc(C(=O)Nc2nnnn2CC)c1C [Example 2-59] | 100 | 90 | 80 | 100 | 90 | 90 | 100 | – | 90 | 90 | 100 | 100 | 90 | 90 | 90 | 90 | 100 | 90 | 90 | 100 | Pre-emergence action against VERPE [14]: 90%; Pre-emergence action against VIOTR ([15]; 20 g/ha): 100%; Post-emergence action against MATIN in % ([17]; 5 g/ha): 80%; Post-emergence action against SETVI in % ([11]; 5 g/ha): 90%; Post-emergence action against VIOTR in % ([13]; 5 g/ha): 80%
9 | CCn1nnnc1NC(=O)c1ccc(C(F)(F)F)c(C(=O)N(C2CC2)C2CC2)c1Cl [Example 2-144] | 100 | – | – | 100 | – | – | 100 | – | – | – | 90 | 90 | – | – | – | – | 100 | – | 80 | 90 | –
10 | CCn1nnnc1NC(=O)c1ccc(C(F)F)c(C(=O)N(C2CC2)C2CC2)c1Cl [Example 2-175] | 100 | 90 | 100 | 100 | – | 90 | 100 | – | 80 | 90 | 100 | 100 | – | – | – | 80 | 90 | – | – | 100 | Pre-emergence action against ALOMY ([2]; 20 g/ha): 80%
11 | CCn1nnnc1NC(=O)c1ccc(Br)c(C(=O)N(C)C)c1Cl [Example 2-191] | 100 | 100 | 100 | 100 | 100 | 90 | 100 | 100 | 90 | 90 | 100 | 100 | – | 100 | – | 80 | 80 | 100 | – | 90 | Pre-emergence action against ALOMY ([2]; 20 g/ha): 90%; Pre-emergence action against AVEFA [20]: 90%; Pre-emergence action against SETVI ([6]; 20 g/ha): 100%; Post-emergence action against PHBPU in % [10]: 80%; Post-emergence action against SETVI in % ([11]; 5 g/ha): 100%
